Assay results: patent US10383332B2, “Antimicrobial compositions and related methods of use” (Jeneil Biosurfactant Company, LLC, priority 2013, dated 2019)

Tests used:
Experiment in all cases: Vapor test, microcup on PDA Petri plate
Conditions in all cases: vapors
Cercospora beticola = system: Cercospora beticola
Phytophthora palmivora = system: Phytophthora palmivora
Botrytis alli = system: Botrytis alli
Pythium ultimum = system: Pythium ultimum
Aspergillus fumigatus = system: Aspergillus fumigatus
Aspergillus niger = system: Aspergillus niger
Rhizoctonia solani = system: Rhizoctonia solani
Geotrichum candidum = system: Geotrichum candidum

**Q.** What does the source list for CCC(=O)O [Propanoic Acid, propanoic acid]?
**A.** % inhibition, alone at 20 μl After 24 hr (C) (Cercospora beticola): 75%; Alive or dead, alone at 20 μl After 24 hr (C) (Cercospora beticola): Alive; % inhibition, alone at 20 μl After 24 hr (C) (Phytophthora palmivora): 100%; % inhibition, alone at 20 μl After 24 hr (C) (Botrytis alli): 0%; Alive or dead, alone at 20 μl After 24 hr (C) (Botrytis alli): Alive; % inhibition, alone at 20 μl After 24 hr (C) (Pythium ultimum): 80%; Alive or dead, alone at 20 μl After 24 hr (C) (Pythium ultimum): Alive; % inhibition, alone at 20 μl After 24 hr (C) (Aspergillus fumigatus): 0%; Alive or dead, alone at 20 μl After 24 hr (C) (Aspergillus fumigatus): Alive; % inhibition, alone at 20 μl After 24 hr (C) (Aspergillus niger): 0%; Alive or dead, alone at 20 μl After 24 hr (C) (Aspergillus niger): Alive; % inhibition, alone at 20 μl After 24 hr (C) (Rhizoctonia solani): 80%; Alive or dead, alone at 20 μl After 24 hr (C) (Rhizoctonia solani): Alive; % inhibition, alone at 20 μl After 24 hr (C) (Geotrichum candidum): 0%; Alive or dead, alone at 20 μl After 24 hr (C) (Geotrichum candidum): Alive
